Test results as given in PMC9948614, “Structural and functional properties of the Kunitz-type and C-terminal domains of Amblyomin-X supporting its antitumor activity” (Frontiers in Molecular Biosciences, 2023).
Read-outs that look alike come from different tables or passages of the source. No end group written: not given here.

How the values were obtained:
[1] = system: SK-MEL-28; experiment: Cellular uptake by confocal laser scanning microscopy; conditions: SK-MEL-28, Alexa Fluor 488-labeled molecule 20 µM, 4 h, 37°C
Procedure: (§1) An additional step was carried out for the purification of peptides using FPLC. SK-MEL-28 and MIA PaCa-2 (10^5 cells/well) were seeded on sterile 35 mm culture dishes. First, a cell-based assay using fluorochrome conjugated molecules was carried by incubation with Amblyomin-X and its synthetic domains (20 µM) in a fresh medium at 37°C for 4 h and nuclei were stained with […] Syto59 (Invitrogen Life Technologies Inc., United States). Then red and green fluorescence were monitored by LSM 510 Meta confocal microscope (Zeiss, Jena, Germany). […] After treatment with synthetic fragments (all at 5 µM) in a fresh medium at 37°C for 4h, tumor cells were scanned on the x-, y-, and z-axes using a confocal microscope TCS SP8 (Leica Microsystems, GmbH Mannheim, DE) with 40x/1.1 objective lens and laser excitation at 405 and 488 nm with additional brightfield channel using the LAS X software (Leica Microsystems, GmbH Mannheim, DE). The images were deconvolved in Huygens Essential version 22.04 (Scientific Volume Imaging, Netherlands).

[2] = system: SK-MEL-28; conditions: for Vesicles counts: SK-MEL-28, Alexa-Fluor 488-labeled molecule 20 µM, 37°C, ImageXpress Micro Confocal, mean ± SD of three independent experiments
Procedure: as §1
(§2) Following the same rationale, after treatment, cells were incubated with Alexa Fluor 555 TrF (100 μg/ml), Alexa Fluor 555 CTxB (50 μg/ml) or Alexa Fluor 555 dextran (1 mg/ml) in the binding medium at 37 °C for 20 min. Also, to evaluate cargo-delivery ability of C-ter, tumor cells were incubated with p15 (100 μM) or this molecule conjugate to C-ter (100 μM) for 4 h. […] Finally, evaluation of C-ter derived fragments (all at 10 μM) were investigated after 4 h of treatment.
(§3) In all 96 wells plate assays, nuclei were stained with Hoechst 33342 and fluorescence was monitored by a Molecular Devices ImageXpress Micro Confocal plate-scanning microscope (Molecular Devices, Sunnyvale, CA). Vesicles count were analyzed using MetaXpress software (Molecular Devices, CA) with Transfluor Application Module.

[3] = system: SK-MEL-28; experiment: Microinjection assay, cell death by PI staining; type: cell-based, human; conditions: SK-MEL-28, microinjection of 488-labeled molecule, both 20 µM, 4 h; about 50 cells per condition
Procedure: SK-MEL-28 cells were plated on glass Cellocate coverslips for 24 h before injection. […] Staurosporine (10 µM) was added directly to the medium for 6 h and was used as a control for PI staining. Ctrl cells were maintained in a culture medium. The solution was injected into the cytoplasm an average of 50 cells for each condition (compensation pressure: 30 hPa; injection pressure: 100 hPa; injection time: 0.3 s). Immediately after injection, cells were replaced with fresh medium in the incubator at 37 °C. After 4 h, cells were stained with PI (1 μg/ml – contain RNAse A 100 ng/ml) for 15 min at r.t.. Then, cells were washed twice with 1X PBS and fixed with 4% paraformaldehyde for 15 min at r.t... Finally, cells were washed with 1X PBS and one drop of solution anti-fade mounting Vectashield® (Vecta Labs) was applied on the slide with the coverslip containing the cells facing down and, then, sealed. The analysis was performed in Leica SP8 confocal microscope (Leica, Germany): Green fluorescence was used to identify microinjected cells and red fluorescence to score cell death.

[4] = system: MIA PaCa-2; experiment: MTT cell viability assay; type: cell-based, human; conditions: 48 h
Procedure: (§4) Cell viability was measured by 3-(4,5-dimethylthiazol-2-yl)-2,5-diphenyltetrazolium bromide (MTT) assay, as described elsewhere ([Morais et al., 2016]). […] After 48h, 10% of 5 mg/ml MTT was added to the cells and the plates were incubated for 3 h at 37 °C. Afterward, the medium was discarded, the dark blue formazan crystalline product was dissolved in 100 µL dimethyl sulfoxide (DMSO), and the absorbance was measured in a Spectra MAX 190 microplate reader (Molecular Devices, Sunnyvale, United States) at 540 nm.
(§5) Amblyomin-X (50 μM) were used for comparative purpose. Besides, staurosporine (5 μM), MG-132 (3 μM) and bortezomib (80 nM) were used as a positive control.

[5] = system: SK-MEL-28; experiment: MTT cell viability assay; conditions: 48 h
Procedure: as §4, §5

[6] = molecular target: T1, FXa (Homo sapiens, UniProt P00742); experiment: FXa activity assay, chromogenic substrate S-2765; type: biochemical; conditions: FXa 40 nM, 30 min 37 °C, 20 mM Tris–HCl, PS/PC 2 µM, 5 mM CaCl2, pH 8.0, S-2765 200 µM, 405 nm
T1 construct: the active factor X (FXa)
T1 sequence (P00742 235-488 limits assumed): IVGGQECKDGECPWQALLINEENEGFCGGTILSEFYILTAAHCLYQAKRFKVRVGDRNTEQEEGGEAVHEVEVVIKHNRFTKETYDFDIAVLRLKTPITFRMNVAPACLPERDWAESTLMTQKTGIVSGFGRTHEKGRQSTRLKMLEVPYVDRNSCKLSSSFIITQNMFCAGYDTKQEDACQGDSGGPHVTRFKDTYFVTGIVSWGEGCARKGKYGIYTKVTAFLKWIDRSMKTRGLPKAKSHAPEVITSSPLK
T1 sequence (P00742 41-179 partner limits assumed): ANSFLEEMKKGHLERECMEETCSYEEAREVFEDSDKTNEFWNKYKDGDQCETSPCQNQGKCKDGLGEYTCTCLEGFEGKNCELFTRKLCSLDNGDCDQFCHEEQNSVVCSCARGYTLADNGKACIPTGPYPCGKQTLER
Procedure: Supplementary material 1 - FXa activity assays - FXa (40 nM) was incubated with varying concentrations of the Amblyomin-X recombinant protein and the synthetic domains for 30 min at 37 °C in 20 mM Tris–HCl containing PS/PC (2 µM) and 5 mM CaCl2, pH 8.0. Cleavage of the chromogenic substrate S-2765 (200µM, Chromogenix, UK) was monitored at 405 nm (SpectraMax 190, Molecular Devices, USA). The percentage of inhibition was determined from the residual activity of the enzymes as previously reported15, 16.

[7] = system: MIA PaCa-2; conditions: MIA PaCa-2, Alexa-Fluor 488-labeled molecule 20 µM, 37°C, ImageXpress Micro Confocal, Transfluor module, mean ± SD of three independent experiments
Procedure: as §1, §2, §3

[8] = system: dynein chains; experiment: Gene expression of dynein chains by real-time PCR; type: cell-based, human
Procedure: Gene expression was evaluated via quantitative real-time polymerase chain reaction (qPCR) according to standard protocols previously reported by our group ([Pacheco et al., 2014]; [Morais et al., 2016]). Briefly, after cell treatment, the total RNA was extracted using the RNeasy kit (Qiagen, Netherlands) followed by DNase treatment, Then, cDNA strands were constructed using a SuperScript® III First-Strand Synthesis kit (InvitrogenTM, Life Technologies Inc., United States), according to manufacturer’s instructions. Finally, the samples were applied in a SYBR® green (Applied Biosystems, United States)-based reaction with specific and validated primers to evaluate mRNA levels of genes coding for dynein chains. RNA levels were normalized to glyceraldehyde 3-phosphate dehydrogenase (GAPDH) and quantified using the Livak 2^−ΔΔCT method ([Livak and Schmittgen, 2001]). The experiments were conducted by Step One Plus® PCR real-time system (Applied Biosystems, United States).

[9] = system: SK-MEL-28; conditions: for Uptake of fluorescent (FITC) peptide by cells: SK-MEL-28, 5 or 10 µM, 6 h, ImageXpress Micro Confocal / confocal TCS SP8
Procedure: An additional step was carried out for the purification of peptides using FPLC. SK-MEL-28 and MIA PaCa-2 (10^5 cells/well) were seeded on sterile 35 mm culture dishes. […] […] The images were deconvolved in Huygens Essential version 22.04 (Scientific Volume Imaging, Netherlands).
Following the same rationale, after treatment, cells were incubated with Alexa Fluor 555 TrF (100 μg/ml), Alexa Fluor 555 CTxB (50 μg/ml) or Alexa Fluor 555 dextran (1 mg/ml) in the binding medium at 37 °C for 20 min. Also, to evaluate cargo-delivery ability of C-ter, tumor cells were incubated with p15 (100 μM) or this molecule conjugate to C-ter (100 μM) for 4 h. […]
as §3

[10] = MIA PaCa-2, synthetic domains 0.2–100 μM
[11] = SK-MEL-28, synthetic domains 0.2–100 μM
[12] = tumor cells, other fragments and TAT-Kunitz data not shown

Substance: ANSKAVCNLPKAGDETCSNKTEIRWYYNGTACEAFIFKGCGGNDNNFDRVDDCQRLC-NH2 (also: bicyclic or more (positions not given here)) [Kunitz]
- Uptake by cells (green fluorescence, confocal) [1]: not detected inside the cells
- Number of vesicles relative to complete Amblyomin-X [2]: ten-fold less
- Propidium iodide (PI) staining after microinjection [3]: 26%
- Effect on cell viability (MTT) [4, 10]: no alteration
- Effect on cell viability (MTT) [5, 11]: no alteration
- Inhibitory activity against FXa [6]: lower inhibitory activity against FXa than TFPI-K2

Substance: C^#WMSPRHLGT C^#EEQTHFHFESPKLISFKVQDYWILNDIMKKNLTGISLKSEEEDADSGEID (disulfide) [p15-C-ter]
- Internalization relative to the non-conjugated molecule (p15) [2]: eight-fold more internalized
- Effect on cell viability (MTT) ([4]; MIA PaCa-2, 100 μM): decreased cell viability
- Effect on cell viability (MTT) ([5]; SK-MEL-28, 100 μM): decreased cell viability

Substance: EEQTHFHFESPKLIFKVQDYWILNDIMKKNLTGISLKSEEEDADSGEID [C-ter]
- Uptake by cells (green fluorescence, confocal) [1]: uptaken
- Vesicles counts ([2]; 0.25 h, MetaXpress Transfluor module): 30.84 ± 17.2
- Vesicles counts ([2]; 0.5 h, Transfluor module): 35.56 ± 21.09
- Vesicles counts ([2]; 1 h, Transfluor module): 62.17 ± 11.20
- Vesicles counts ([2]; 2 h, Transfluor module): 558.48 ± 189.00
- Vesicles counts ([2]; 4 h, Transfluor module): 1210.74 ± 379.14
- Vesicles counts ([7]; 0.25 h): 4.36 ± 2.03
- Vesicles counts ([7]; 0.5 h): 17.50 ± 24.63
- Vesicles counts ([7]; 1 h): 10.59 ± 7.15
- Vesicles counts ([7]; 2 h): 171.11 ± 248.57
- Vesicles counts ([7]; 4 h): 802.63 ± 353.12
- Gene expression of dynein chains [8, 12]: modulated gene expression of dynein chains
- Uptake of fluorescent (FITC) peptide by cells [9]: uptaken
- Cells counts per well ([9]; SK-MEL-28, fluorescent peptides 10 µM, all treatments investigated): No alterations in cells counts
- Effect on cell viability (MTT) [4, 10]: no alteration
- Effect on cell viability (MTT) [5, 11]: no alteration

Substance: FKVQDYWILNDIMKKNLTGI* [F2C]
- Gene expression of dynein chains ([8]; SK-MEL-28, 5 µM, 24 h, real-time PCR, normalized to GAPDH): modulate gene expression of all dynein chains evaluated
- Gene expression of dynein chains [8, 12]: modulated gene expression of dynein chains
- Relative fluorescence units (RFU) compared with other peptides ([9]; SK-MEL-28, 10 µM, even in short times of treatment): higher values of relative fluorescence units (RFU)
- Uptake of fluorescent (FITC) peptide by cells [9]: detected in the cell

Substance: GRKKRRQRRRPPQANSKAVCNLPKLAGDETCSNKTEIRWYYNGTACEAFIFKGCGGNDNNFDRVDDCQRLC-NH2 (also: bicyclic or more (positions not given here)) [TAT-Kunitz]
- Cytotoxicity (MTT) ([5]; TAT-Kunitz at 20 and 50 μM, cell line not stated at the place (Figure 7B)): significant cytotoxicity activity
